The values that follow come from patent publication US20220395528A1, “AGENT FOR PREVENTING OR TREATING […] DEVICE FOR PREVENTING OR TREATING ARRHYTHMIA” (SCHOOL JURIDICAL PERSON THE KITASATO INSTITUTE, priority 2019, published 2022).

Molecules are shown by their SMILES.

For series [1] the following is noted: high-concentration hydrogen inhaled, gaseous hydrogen used as a gas for diving; cited from earlier work.
In series [2] the test system is Pigs. The series is described as follows: Number of arrhythmias on electrocardiogram in pigs after balloon occlusion of the anterior descending branch of the left coronary artery, gas inhalation (Experiment Example 1). The format is in vivo. Particulars: coronary blood flow interrupted, counted for 10 minutes of inhalation versus the preceding 10 minutes, FIG. 3. The protocol: Pigs were anesthetized with pentobarbital, and electrocardiogram measurement was performed. After tracheal intubation, an artificial respirator was connected, and respiratory management was performed. A catheter was inserted into the descending aorta from the inguinal region, a balloon was placed in the anterior descending branch of the left coronary artery, and the balloon was inflated to interrupt the blood flow. After 40 minutes, an electrocardiogram was measured without doing anything for 10 minutes, the number of arrhythmias was counted, and after that, for 10 minutes, the number of arrhythmias was counted in the same manner for a control group, a hydrogen inhalation group, a nitric oxide inhalation group, or a combination group (hydrogen and nitric oxide inhalation group) in a divided manner.
A gas inhaled by the control group was a mixed gas (oxygen concentration of 35%) of oxygen and nitrogen and containing no hydrogen or nitric oxide.

On to `[HH]` [hydrogen], for which the side effects result in series [1] was “no side effects”. In series [2] (mixed gas of air and hydrogen, hydrogen concentration 1.3%), the number of arrhythmias entry is “decreased”.

In the case of `[N]=O` [nitric oxide, reference compound], the number of arrhythmias entry in series [2] (mixed gas of air and nitric oxide, nitric oxide concentration 80 ppm) is on record as “increase”.
